Inhibition and EC50 data for 25 compounds are collected here from patent US7550485B2, “Substituted N-heterocycle derivatives and methods of their use” (Wyeth, priority 2003, dated 2009).

pEC50: −log10 of the molar value. Counter-ions that a name gives are not always drawn.

One may read the inhibition as the drop in the measured response relative to a control, in per cent. A higher inhibition goes with a strong effect. The term pEC50 denotes the negative decadic logarithm of the EC50, by convention in mol/L.

The test deals with T1, hNET (Homo sapiens, UniProt P23975).
T1 construct: expressed in transfected cells
T1 sequence (P23975 whole entry): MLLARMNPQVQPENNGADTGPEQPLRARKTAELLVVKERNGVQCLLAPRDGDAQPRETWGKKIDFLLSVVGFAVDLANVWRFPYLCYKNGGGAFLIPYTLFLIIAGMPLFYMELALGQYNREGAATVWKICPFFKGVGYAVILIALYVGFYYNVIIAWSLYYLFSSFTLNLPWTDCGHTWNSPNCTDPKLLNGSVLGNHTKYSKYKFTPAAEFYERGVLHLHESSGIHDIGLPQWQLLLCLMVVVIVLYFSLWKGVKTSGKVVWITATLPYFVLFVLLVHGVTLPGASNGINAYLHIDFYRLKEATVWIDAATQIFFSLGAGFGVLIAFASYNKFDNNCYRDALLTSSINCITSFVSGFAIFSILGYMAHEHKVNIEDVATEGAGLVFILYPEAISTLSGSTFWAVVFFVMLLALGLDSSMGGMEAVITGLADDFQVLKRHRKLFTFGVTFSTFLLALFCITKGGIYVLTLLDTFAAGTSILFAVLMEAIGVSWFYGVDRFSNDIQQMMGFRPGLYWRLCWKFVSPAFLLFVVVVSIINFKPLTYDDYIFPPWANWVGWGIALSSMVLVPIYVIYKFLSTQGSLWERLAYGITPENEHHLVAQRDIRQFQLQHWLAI
Put plainly: Norepinephrine (NE) uptake assay in MDCK-Net6 cells stably transfected with human hNET. The format is cell-based. The settings on record: [3H]NE uptake; for inhibition at 1 µM: MDCK-Net6, 1 μM test compound; for pEC50: test range 1 to 10,000 nM. In short, it runs like this: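 MDCK-Net6 cells preincubated 20 min at 37 °C with compound (1 to 10,000 nM) in HEPES buffer pH 7.4 with pargyline and ascorbate, then 5 min [3H]NE uptake (120 nM final). Lysed cells counted by scintillation; 1 μM desipramine defined minimum uptake; EC50 from logistic fit of pooled data.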

Consider `OC1CCN(CC(c2ccc(OCc3ccccc3)c(Cl)c2)C2(O)CCCCC2)CC1` (stereo not shown) [Example 241, 1-[2-[4-(benzyloxy)-3-chlorophenyl]-2-(1-hydroxycyclohexyl)ethyl]piperidin-4-ol hydrochloride], for which the inhibition at 1 µM came out at 72.5%.

In turn, `NC1CCN(CC(c2cccc(Cl)c2)C2CCCCC2O)CC1` (stereo not shown) [Example 239, 2-[2-(4-aminopiperidin-1-yl)-1-(3-chlorophenyl)ethyl]cyclohexanol dihydrochloride] yielded an inhibition at 1 µM of 81.8%.

Regarding `COc1ccc2cc(C(CN3CCC(N4CCCC4)CC3)C3(O)CCCCC3)ccc2c1` (stereo not shown) [Example 345, 1-[1-(6-methoxy-2-naphthyl)-2-(4-pyrrolidin-1-ylpiperidin-1-yl)ethyl]cyclohexanol dihydrochloride], at 1 µM the inhibition was 65% and the pEC50 is 6.28.

As to `N[C@H]1CCN(CC(c2cccc(Cl)c2)C2(O)CCCCC2)C1` (stereo partly drawn) [Example 16, 1-[2-[(3S)-3-aminopyrrolidin-1-yl]-1-(3-chlorophenyl)ethyl]cyclohexanol dihydrochloride], the inhibition at 1 µM is 89% and the pEC50 is 6.92.

`COc1ccc(C(CN2CCC(N(C)C)CC2)C2(O)CCCCC2)cc1Br` (stereo not shown) [Example 318, 1-{1-(3-bromo-4-methoxyphenyl)-2-[4-(dimethylamino)piperidin-1-yl]ethyl}cyclohexanol dihydrochloride] displayed an inhibition at 1 µM of 84%.

For `N[C@@H]1CCN(CC(c2ccc(OCc3ccccc3)c(Cl)c2)C2(O)CCCCC2)C1` (stereo partly drawn) [Example 383, 1-{2-[(3R)-3-aminopyrrolidin-1-yl]-1-[4-(benzyloxy)-3-chlorophenyl]ethyl}cyclohexanol dihydrochloride], the inhibition at 1 µM turned out to be 90%.

`OC1(C(CN2CCC(N3CCCCC3)CC2)c2cccc(Oc3ccccc3)c2)CCCCC1` (stereo not shown) [Example 314, 1-[2-(1,4′-bipiperidin-1′-yl)-1-[3-(phenoxyphenyl)ethyl]cyclohexanoldihydrochloride]: the inhibition at 1 µM was 95.5%.

`CN(C)C1CCN(CC(c2ccc(Cl)c(Cl)c2)C2(O)CCCCC2)CC1` (stereo not shown) [Example 320, 1-{1-(3,4-dichlorophenyl)-2-[4-(dimethylamino)piperidin-1-yl]ethyl}cyclohexanol dihydrochloride] yielded an inhibition at 1 µM of 88.1%.

In the case of `COc1ccc2cc(C(CN3CCC(N4CCCCC4)CC3)C3(O)CCCCC3)ccc2c1` (stereo not shown) [Example 346, 1-[2-(1,4′-bipiperidin-1′-yl)-1-(6-methoxy-2-naphthyl)ethyl]cyclohexanol dihydrochloride], 1 µM produced 81% inhibition and the pEC50 was 6.72.

As for `N[C@H]1CCN(CC(c2cccc(OC(F)(F)F)c2)C2(O)CCCCC2)C1` (stereo partly drawn) [Example 216, 1-{2-[(3S)-3-aminopyrrolidin-1-yl]-1-[3-(trifluoromethoxy)phenyl]ethyl}cyclohexanol dihydrochloride], the inhibition at 1 µM was found to be 38.9%.

Compound `NC1CCN(CC(c2cccc(Oc3ccccc3)c2)C2(O)CCCCC2)CC1` (stereo not shown) [Example 315, 1-[2-(4-aminopiperidin-1-yl)-1-(3-phenoxyphenyl)ethyl]cyclohexanol dihydrochloride] had an inhibition at 1 µM of 75.2%.

Compound `CN[C@H]1CCN(CC(c2ccc(OCc3ccccc3)cc2)C2(O)CCCCC2)C1` (stereo partly drawn) [Example 212, 1-{1-[4-(benzyloxy)phenyl]-2-[(3S)-3-(methylamino)pyrrolidin-1-yl]ethyl}cyclohexanol dihydrochloride] displayed an inhibition at 1 µM of 84.8%.

Regarding `N[C@H]1CCN(CC(c2cccc3ccccc23)C2(O)CCCCC2)C1` (stereo partly drawn) [Example 207, 1-[2-[(3S)-3-aminopyrrolidin-1-yl]-1-(1-naphthyl)ethyl]cyclohexanol dihydrochloride], the inhibition at 1 µM came to 65.7%.

Consider `CN(C)C1CCN(CC(c2cccc(Cl)c2)C2CCCC2)CC1` (stereo not shown) [Example 229, 1-[2-(3-chlorophenyl)-2-cyclopentylethyl]-N,N-dimethylpiperidin-4-amine dihydrochloride], for which the inhibition at 1 µM amounted to 87.3%.

`OC1(C(CN2CCC(N3CCCCC3)CC2)c2cccc(Br)c2)CCCCC1` (stereo not shown) [Example 4, 1-[2-(1,4′-bipiperidin-1′-yl)-1-(3-bromophenyl)ethyl]cyclohexanol dihydrochloride] had an inhibition at 1 µM of 97% and a pEC50 of 6.80.

`N[C@@H]1CCN(CC(c2ccc(OCc3ccccc3)cc2)C2(O)CCCCC2)C1` (stereo partly drawn) [Example 380, 1-{2-[(3R)-3-aminopyrrolidin-1-yl]-1-[4-(benzyloxy)phenyl]ethyl}cyclohexanol dihydrochloride] yielded an inhibition at 1 µM of 20%.

Regarding `N[C@H]1CCN(C[C@H](c2cccc(Cl)c2)C2(O)CCCCC2)C1` [Example 387, 1-[(1S)-2-[(3S)-3-aminopyrrolidin-1-yl]-1-(3-chlorophenyl)ethyl]cyclohexanol dihydrochloride], the pEC50 was 6.39.

In turn, `CN(C)C1CCN(CC(c2cccc(Br)c2)C2(O)CCCCC2)CC1` (stereo not shown) [Example 319, 1-{1-(3-bromophenyl)-2-[4-(dimethylamino)piperidin-1-yl]ethyl}cyclohexanol dihydrochloride] had an inhibition at 1 µM of 95.4%.

Turning to `NC1CCN(CC(c2ccc(Oc3ccccc3)cc2)C2(O)CCCCC2)CC1` (stereo not shown) [Example 310, 1-{2-(4-aminopiperidin-1-yl)-1-(4-phenoxyphenyl)ethyl]cyclohexanol dihydrochloride], at 1 µM the inhibition was 44.1%.

In turn, `OC1(C(CN2CCC(N3CCCC3)CC2)c2cccc(C(F)(F)F)c2)CCCCC1` (stereo not shown) [Example 26, 1-{2-(4-pyrrolidin-1-ylpiperidin-1-yl)-1-[3-(trifluoromethyl)phenyl]ethyl}cyclohexanol dihydrochloride] had an inhibition at 1 µM of 84% and a pEC50 of 6.70.

In turn, `NC1CCN(CC(c2cccc(Cl)c2)C2(O)CCC3CCCCC3C2)CC1` (stereo not shown) [Example 327, 2-[2-(4-aminopiperidin-1-yl-1-(3-chlorophenyl)ethyl]decahydronaphthalen-2-oldihydrochloride] displayed an inhibition at 1 µM of 3%.

Compound `CN(C)[C@H]1CCCN(CC(c2ccc(OCc3ccccc3)c(Cl)c2)C2(O)CCCCC2)C1` (stereo partly drawn) [Example 197, 1-{1-[4-(benzyloxy)-3-chlorophenyl]-2-[(3S)-3-(dimethylamino)piperidin-1-yl]ethyl}cyclohexanol dihydrochloride] gave an inhibition at 1 µM of 76%.

In turn, `N[C@@H]1CCCN(CC(c2ccc(OCc3ccccc3)c(Cl)c2)C2(O)CCCCC2)C1` (stereo partly drawn) [Example 193, 1-{2-[(3R)-3-aminopiperidin-1-yl]-1-[4-(benzyloxy)-3-chlorophenyl]ethyl}cyclohexanol dihydrochloride] yielded an inhibition at 1 µM of 87.2%.

In turn, `CN(C)C1CCN(CC(c2ccc(OCc3ccc4ccccc4c3)c(Cl)c2)C2(O)CCCCC2)CC1` (stereo not shown) [Example 431, 1-{1-[3-chloro-4-(2-naphthylmethoxyl)phenyl]-2-[4-(dimethylamino)piperidin-1-yl]ethyl}cyclohexanol dihydrochloride] had an inhibition at 1 µM of 79% and a pEC50 of 7.27.

`CN(C)[C@H]1CCN(CC(c2ccc(OCc3ccccc3)cc2)C2(O)CCCCC2)C1` (stereo partly drawn) [Example 214, 1-{1-[4-(benzyloxy)phenyl]-2-[(3S)-3-(dimethylamino)pyrrolidin-1-yl]ethyl}cyclohexanol dihydrochloride] returned an inhibition at 1 µM of 65%.
